Numbered stars: 1 amine (or outer) side, 2 acyl side, 3 side chain; on linkers, the order of the positions; unused ones are H or OH. Bridge positions count the residues as written; N and C are the ends. Square brackets hold non-standard residues; d marks the D form. Peptide text beside a SMILES is read from it. * marks the point of attachment. ξ: configuration not given here. Orn(4R-OH,5R-OCH2CH2NMe3+) = C[N+](C)(C)CCO[C@@H](N[*:3])[C@H](O)C[C@H](N[*:1])C(=O)[*:2]; pTerphenylCO(4''-OnC5H11) = CCCCCOc1ccc(-c2ccc(-c3ccc(C(=O)*)cc3)cc2)cc1; hTyr(3S-OH,4S-OH) = N[C@H](C(=O)O)[C@H](O)[C@@H](O)c1ccc(O)cc1; X1 = C[C@H]1CN([*:1])C(C(=O)[*:2])C1O; Hyp = O=C(O)[C@@H]1C[C@@H](O)CN1; ξT = CC(O)C(N)C(=O)O
Tests used:
[1] = system: A. fumigatus (ATCC 13073); assay: Disseminated infection of immune competent DBA/2 mice, prophylaxis, survival; type: in vivo, Aspergillus fumigatus
Procedure: (§1) A. fumigatus (ATCC 13073) growth was taken from 96 hour potato dextrose agar (PDA) and re-suspended in 0.1% Tween 20. The culture was resuspended in 1 mL cold PBS (>1.0×10^8 CFU/mL, OD620 2.3-2.8). The culture was then diluted in PBS to final cellular densities of 1.0×10^7 CFU/mL. The actual colony counts were determined by plating dilutions on PDA plates to confirm inoculation concentration. The actual inoculum count was 1.30×10^7 CFU/mL.
Groups of 6 immune competent female DBA/2 mice weighing 18±2 g were used. On Day 0, animals were inoculated (0.1 mL/mouse) by intravenous (IV) injection into the tail vein with A. fumigatus (ATCC 13073), 1.30×10^6 CFU per mouse. CD101 at 3, 10 and 30 mg/kg as prophylaxis was administered subcutaneously (SC) once starting 5, 3 or 1 day before inoculation. In addition, CD101 at 3 mg/kg SC and the reference, amphotericin B, at 3 mg/kg by intraperitoneal (IP) injection were administered one hour after infection (See Table 2).
(§2) A 50 percent or more (≥50%) increase in the survival rate compared to the vehicle control group indicates significant anti-infective activity. The health observations including body weight, hunched posture, ruffled fur, immobility and hypothermia were recorded daily for 14 days.

[2] = system: C. albicans SC-5314 biofilms; assay: Mature phase biofilms (treatment) on silicone elastomer discs; type: cell-based, Candida albicans
Procedure: Biofilms were formed on silicone elastomer (SE) discs using a catheter-associated-biofilm model (Chandra et al., Nature Protocols 3:1909, 2008; Chandra et al., J. […] Chandra et al., J. Dental Research 80: 903, 2001). For evaluation of activity against adhesion phase biofilms (prevention), Candida cells were adhered to catheter discs for 90 min. […] Discs incubated with fluconazole or media alone were used as controls in all experiments. […] Chandra et al., J. […] Chandra et al., J. Dental Research 80: 903, 2001). Following incubation with drugs, discs were transferred to fresh plates containing phosphate buffered saline with XTT and menadione, incubated for 3 h at 37° C. and optical density was read at 492 nm. Separate batches of biofilms were stained with fluorescent dyes (FUN1™, CONA) and observed under Confocal Scanning Laser Microscope (CSLM) to evaluate biofilm architecture and thickness (Chandra et al., Nature Protocols 3:1909, 2008; Chandra et al., J. […] Statistical analyses for all data were performed using GraphPad Prism 6 software. Drug treated groups were compared to control untreated groups using unpaired t-tests.

[3] = Pharmacokinetic profile in female rats, SC and IV; settings: rat, in vivo
Description: Pharmacokinetic Profile of CD101. The pharmacokinetic (PK) profile of CD101 in female rats (three per group) was characterized.

C. albicans = assay: In vitro susceptibility testing (CLSI M27-A3); type: cell-based; settings: Candida albicans, 24 h
Procedure: (§3) Strains. Ten clinical Candida strains were used for the in vivo treatment studies, including four C. albicans, three C. glabrata, and three C. parapsilosis strains (Table 18). This group was selected to encompass phenotypic variability in susceptibility to triazoles and echinocandins and based on similar fitness in the animal model as defined by the amount of growth in control animals over 24 h. The organisms were maintained, grown, and quantified on Sabouraud's dextrose agar (SDA) plates.
(§4) In vitro susceptibility testing. All isolates were tested in accordance with the standards in CLSI document M27-A3. The MICs were determined visually after 24 h of incubation as the lowest concentration of drug that causes a significant diminution (≥50%) of growth compared to controls. MICs were determined on three separate occasions in duplicate.

C. parapsilosis = assay: In vitro susceptibility testing (CLSI M27-A3); type: cell-based, Candida parapsilosis; settings: Lodderomyces parapsilosis, 24 h
Procedure: as §3, §4

[4] = system: A. fumigatus (ATCC 13073); assay: Disseminated infection of neutropenic ICR mice, prophylaxis, survival; type: in vivo, Aspergillus fumigatus
Procedure: as §1, with “Inoculum Preparation. A.” for “A.”, “hr” for “hour”, “2.0×10^5” for “1.0×10^7”, “1.85×10^5” for “1.30×10^7”
A. fumigatus (ATCC 13073) disseminated infection (IV). Groups of 6 female ICR mice weighing 22±2 g were used. Animals were immunosuppressed by three intraperitoneal (IP) injections of cyclophosphamide (the first at 6 mg/mouse 3 days before inoculation, the second and third at 2 mg/mouse on Day 1 then Day 4 after inoculation). On Day 0, animals were inoculated (0.1 mL/mouse) by intravenous (IV) injection into the tail vein with A. fumigatus (ATCC 13073), 1.85×10^4 CFU per mouse. CD101 at 5, 10 and 20 mg/kg as prophylaxis was administered subcutaneously (SC) once starting 5, 3 or 1 day before inoculation. […]
as §2, with “days. Animals found moribund were to be humanely sacrificed with CO2 asphyxiation in the study.” for “days.”

[5] = system: Candida albicans clinical isolates; settings: SENTRY surveillance (Pfaller, et al 2017); cited from earlier work
[6] = 5, 10 and 20 mg/kg SC on Day −5, −3 and −1

## CCCCCOc1ccc(-c2ccc(-c3ccc(C(=O)N[C@H]4C[C@@H](O)[C@@H](OCC[N+](C)(C)C)NC(=O)C5C(O)[C@@H](C)CN5C(=O)[C@H]([C@@H](C)O)NC(=O)[C@H]([C@H](O)[C@@H](O)c5ccc(O)cc5)NC(=O)[C@@H]5C[C@@H](O)CN5C(=O)C(C(C)O)NC4=O)cc3)cc2)cc1 (stereo partly drawn) [CD101] ({pTerphenylCO(4''-OnC5H11)}-[Orn(4R-OH,5R-OCH2CH2NMe3+)][ξT][Hyp][hTyr(3S-OH,4S-OH)]T[X1]; lactam 1-C)
[1]; 3 mg/kg SC 1 hour after infection
  14-day survival: significant increase in the 14-day survival
[1]; 3, 10 and 30 mg/kg SC on Day −5, −3 and −1
  symptoms of infection (body weight, hunched posture, ruffled fur, immobility, hypothermia): improved
[1]; SC: 3 mg/kg Day −1, 10 mg/kg Day −5, −3, −1, 30 mg/kg Day −5, −3, −1
  increase in the 14-day survival compared to the vehicle group: 50%
[2]; 0.25 and 1 μg/ml
  biofilm architecture (CSLM): eradicated and showed bulged, deformed/broken cells
[2]; 0.25 and 1 μg/ml, 24 h, vs untreated, P<0.05
  biofilm metabolic activity (XTT): significantly less metabolic activity
[2]; CD101 exposed, untreated control 43 μm, P<0.05
  thickness of biofilms: 24 μm
[3]; SC
  Tmax: 8 to 24 h
[3]; sc, 10 mg/kg
  bioavailability: 97%
[3]; subcutaneous, 10 mg/kg, read-out: t½ (converted)
  half-life: 48 h
C. albicans; strain 98-17
  MIC: 0.06 µg/mL
C. albicans; strain 98-210
  MIC: 0.03 µg/mL
C. albicans; strain 580
  MIC: 0.06 µg/mL
C. albicans; strain K-1
  MIC: 0.06 µg/mL
C. parapsilosis; strain 20423.072
  MIC: 0.5 µg/mL
C. parapsilosis; strain 20477.048
  MIC: 1 µg/mL
C. parapsilosis; strain 20519.069
  MIC: 1 µg/mL
[4]; 5 mg/kg SC 1 hr after infection
  14-day survival: significant increase in the 14-day survival
[4]; [6]
  increase in the 14-day survival compared to the vehicle group: ≥ 50%
  symptoms of infection (body weight, hunched posture, ruffled fur, immobility, hypothermia): improved
[5]
  MIC90: 0.06 µg/mL

Reference: patent US20240076347A1, “METHODS FOR PREVENTING FUNGAL INFECTIONS” (Cidara Therapeutics, Inc., priority 2016, published 2024)
